In PubChem BioAssay AID330 (DTP/NCI, 2004):
Values joined by “and” are separate entries in the source; they are usually repeats but may differ in a detail not shown here. Identical values can stand only once. Toxic doses and inconclusive results are not listed. Square brackets hold non-standard residues; d marks the D form. Peptide text beside a SMILES is read from it. ξ: configuration not given here. ξR = N=C(N)NCCCC(N)C(=O)O

Test system: P388 leukemia ip, CD2F1 mice, survival T/C
Experiment: NCI In Vivo Anticancer Drug Screen. Data for tumor model P388 Leukemia (intraperitoneal) in CD2F1 (CDF1) mice
Settings: endpoint: median survival time, higher = longer survival
Method in brief: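 Mice carrying the transplanted tumor received test compound or vehicle. Survival was recorded in each group, and the value is the treated-group measurement divided by that of the vehicle-treated control group.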

[1] = dose: 50.0 mg/kg/injection, schedule: Q01DX005 (ip), vehicle: Klucel (hydroxypropylcellulose) (HPC)
[2] = dose: 100.0 mg/kg/injection, schedule: Q01DX005 (ip), vehicle: Klucel (hydroxypropylcellulose) (HPC)
[3] = dose: 200.0 mg/kg/injection, schedule: Q01DX005 (ip), vehicle: Klucel (hydroxypropylcellulose) (HPC)
[4] = dose: 50.0 mg/kg/injection, schedule: Q01DX009 (ip), vehicle: saline with Tween-80
[5] = dose: 100.0 mg/kg/injection, schedule: Q01DX009 (ip), vehicle: saline with Tween-80
[6] = dose: 200.0 mg/kg/injection, schedule: Q01DX009 (ip), vehicle: saline with Tween-80
[7] = dose: 50.0 mg/kg/injection, schedule: Q01DX009 (ip), vehicle: Klucel (hydroxypropylcellulose) (HPC)
[8] = dose: 100.0 mg/kg/injection, schedule: Q01DX009 (ip), vehicle: Klucel (hydroxypropylcellulose) (HPC)
[9] = dose: 200.0 mg/kg/injection, schedule: Q01DX009 (ip), vehicle: Klucel (hydroxypropylcellulose) (HPC)
[10] = dose: 25.0 mg/kg/injection, schedule: Q01DX009 (ip), vehicle: Klucel (hydroxypropylcellulose) (HPC)
[11] = dose: 50.0 mg/kg/injection, schedule: Q01DX005 (ip), vehicle: saline
[12] = dose: 100.0 mg/kg/injection, schedule: Q01DX005 (ip), vehicle: saline
[13] = dose: 200.0 mg/kg/injection, schedule: Q01DX005 (ip), vehicle: saline
[14] = dose: 200.0 mg/kg/injection, schedule: Q04DX003 (ip), vehicle: saline with Tween-80
[15] = dose: 25.0 mg/kg/injection, schedule: Q01DX009 (ip), vehicle: saline with Tween-80

For COC(=O)C1=CN2CCc3c([nH]c4ccccc34)C2(C)C2CN3CCc4c([nH]c5ccccc45)C3CC12 (centres undefined), the T/C (dose: 2.25 mg/kg/injection, schedule: Q01DX009 (ip), vehicle: Klucel (hydroxypropylcellulose) (HPC)) was 98 % of control, the T/C (dose: 4.5 mg/kg/injection, schedule: Q01DX009 (ip), vehicle: Klucel (hydroxypropylcellulose) (HPC)) was 106 % of control and the T/C (dose: 9.0 mg/kg/injection, schedule: Q01DX009 (ip), vehicle: Klucel (hydroxypropylcellulose) (HPC)) was 113 % of control. For the same compound, the T/C (dose: 18.0 mg/kg/injection, schedule: Q01DX009 (ip), vehicle: Klucel (hydroxypropylcellulose) (HPC)) was 92 % of control and the T/C (dose: 36.0 mg/kg/injection, schedule: Q01DX009 (ip), vehicle: Klucel (hydroxypropylcellulose) (HPC)) was 98 % of control.
In the case of CC1c2ccccc2NC(=O)N1N1CCOCC1 (centres undefined), the T/C [1] is reported as 96 % of control, the T/C [2] is reported as 93 % of control and the T/C [3] is reported as 97 % of control.
For O=C1C2CCC(N1CCc1ccccc1)n1c(=O)n(-c3ccccc3)c(=O)n12 (centres undefined), the T/C (dose: 100.0 mg/kg/injection, schedule: Q01DX001 (ip), vehicle: Klucel (hydroxypropylcellulose) (HPC)) was 99 % of control, the T/C (dose: 200.0 mg/kg/injection, schedule: Q01DX001 (ip), vehicle: Klucel (hydroxypropylcellulose) (HPC)) was 104 % of control and the T/C (dose: 400.0 mg/kg/injection, schedule: Q01DX001 (ip), vehicle: Klucel (hydroxypropylcellulose) (HPC)) was 97 % of control.
For O=C(O)c1ccccc1C(=O)n1cnc2ccccc21, the T/C [4] was 87 % of control, the T/C [5] was 94 % of control and the T/C [6] was 90 % of control.
With COC(=O)NCP(=O)(CNC(=O)OC)CNC(=O)OC the T/C [7] was 100 % of control, the T/C [8] was 98 % of control and the T/C [9] was 100 % of control.
CC12C=CC(C)(C3C(=O)NC(=O)C31)C1C3C(=O)NC(=O)C3C12 (centres undefined) was tested, and the T/C [10] was 106 % of control, the T/C [7] was 109 % of control and the T/C [8] was 106 % of control. The T/C [9] was 109 % of control.
With CN1CCS(=O)(=O)C2CCCCC2C1=O (centres undefined) the T/C [4] was 96 % of control, the T/C [5] was 104 % of control and the T/C [6] was 96 % of control.
In the case of CC(C(=O)NC(=O)O)S(=O)(=O)O (centres undefined), the T/C (dose: 12.5 mg/kg/injection, schedule: Q01DX001 (ip), vehicle: saline with Tween-80) is reported as 101 % of control and the T/C (dose: 25.0 mg/kg/injection, schedule: Q01DX001 (ip), vehicle: saline with Tween-80) is reported as 103 % of control.
With COC(=O)/C=C/c1cc(=O)nc2sc3ccccc3n12 the T/C (dose: 60.0 mg/kg/injection, schedule: Q01DX005 (ip), vehicle: Klucel (hydroxypropylcellulose) (HPC)) was 93 % of control, the T/C (dose: 120.0 mg/kg/injection, schedule: Q01DX005 (ip), vehicle: Klucel (hydroxypropylcellulose) (HPC)) was 93 % of control and the T/C (dose: 240.0 mg/kg/injection, schedule: Q01DX005 (ip), vehicle: Klucel (hydroxypropylcellulose) (HPC)) was 94 % of control.
With O=S1(=O)Cc2c(Br)c(Br)c(Br)c(Br)c2C1 the T/C (dose: 12.5 mg/kg/injection, schedule: Q01DX009 (ip), vehicle: saline sonified) was 109 % of control, the T/C (dose: 25.0 mg/kg/injection, schedule: Q01DX009 (ip), vehicle: saline sonified) was 109 % of control and the T/C (dose: 50.0 mg/kg/injection, schedule: Q01DX009 (ip), vehicle: saline sonified) was 109 % of control.
For CCC(=O)n1nc(Nc2ccccc2)c(C(=O)OC)c1C, the T/C (dose: 6.25 mg/kg/injection, schedule: Q01DX005 (ip), vehicle: saline with Tween-80) was 99 % of control, the T/C (dose: 12.5 mg/kg/injection, schedule: Q01DX005 (ip), vehicle: saline with Tween-80) was 94 % of control and the T/C (dose: 25.0 mg/kg/injection, schedule: Q01DX005 (ip), vehicle: saline with Tween-80) was 94 % of control. For the same compound, the T/C (dose: 200.0 mg/kg/injection, schedule: Q01DX005 (ip), vehicle: saline with Tween-80) was 86 % of control.
In the case of Cc1cc(C)n(C(=O)n2nc(C)cc2C)n1, the T/C [11] is reported as 100 % of control, the T/C [12] is reported as 107 % of control and the T/C [13] is reported as 100 % of control.
For CCCCCCCCCCCCCCCC[N+](C)(C)CCSc1ccccc1, the T/C (dose: 1.56 mg/kg/injection, schedule: Q01DX009 (ip), vehicle: distilled water + alcohol) was 107 % of control and 108 % of control and 111 % of control, the T/C (dose: 3.12 mg/kg/injection, schedule: Q01DX009 (ip), vehicle: distilled water + alcohol) was 110 % of control (2×) and 122 % of control and the T/C (dose: 12.5 mg/kg/injection, schedule: Q01DX009 (ip), vehicle: distilled water + alcohol) was 98 % of control.
COc1cccc2c1C(=O)c1c(O)c3c(c(O)c1C2=O)C[C@@](O)(C(C)=O)C[C@@H]3OC1CC(N2CCOCC2C#N)C(O)C(C)O1 (some centres undefined) was tested, and the T/C (dose: 0.2 mg/kg/injection, schedule: Q04DX003 (ip), vehicle: water) was 191 % of control, the T/C (dose: 0.39 mg/kg/injection, schedule: Q04DX003 (ip), vehicle: distilled water + Tween-80) was 187 % of control and the T/C (dose: 0.39 mg/kg/injection, schedule: Q04DX003 (ip), vehicle: water) was 207 % of control. For the same compound, the T/C (dose: 0.78 mg/kg/injection, schedule: Q04DX003 (ip), vehicle: water) was 95 % of control.
CN(C)/C=C1\CCCCC1=C(C#N)C#N was tested, and the T/C (dose: 100.0 mg/kg/injection, schedule: Q04DX003 (ip), vehicle: saline) was 100 % of control, the T/C (dose: 200.0 mg/kg/injection, schedule: Q04DX003 (ip), vehicle: saline) was 93 % of control and the T/C (dose: 400.0 mg/kg/injection, schedule: Q04DX003 (ip), vehicle: saline) was 95 % of control.
With CN=C1c2ccccc2C2(c3ccccc3)C1N2C (centres undefined) the T/C (dose: 100.0 mg/kg/injection, schedule: Q04DX003 (ip), vehicle: saline with Tween-80) was 104 % of control and the T/C [14] was 100 % of control.
For COc1cccc2c1C(CO)N1C(C#N)C3CC(C(=O)O)C(C1C2)N3C (centres undefined), the T/C (dose: 0.78 mg/kg/injection, schedule: Q01DX005 (ip), vehicle: suspension in saline) was 116 % of control and 122 % of control, the T/C (dose: 1.56 mg/kg/injection, schedule: Q01DX005 (ip), vehicle: suspension in saline) was 122 % of control and the T/C (dose: 3.12 mg/kg/injection, schedule: Q01DX005 (ip), vehicle: saline) was 150 % of control. For the same compound, the T/C (dose: 6.25 mg/kg/injection, schedule: Q01DX005 (ip), vehicle: saline) was 157 % of control, the T/C (dose: 6.25 mg/kg/injection, schedule: Q01DX005 (ip), vehicle: suspension in saline) was 159 % of control and the T/C (dose: 12.5 mg/kg/injection, schedule: Q01DX005 (ip), vehicle: saline) was 160 % of control. For the same compound, the T/C (dose: 12.5 mg/kg/injection, schedule: Q01DX005 (ip), vehicle: suspension in saline) was 150 % of control and 178 % of control and 186 % of control and the T/C (dose: 25.0 mg/kg/injection, schedule: Q01DX005 (ip), vehicle: saline) was 200 % of control.
With Cc1cc(O)c(C)c(C(=O)O)c1 the T/C [4] was 99 % of control, the T/C [5] was 99 % of control and the T/C [6] was 92 % of control.
In the case of COc1cc(/C=N\N=C\c2cc(OC)c(OC)c(OC)c2)cc(OC)c1OC, the T/C [14] is reported as 100 % of control.
NC(N)=NCCCC(N)C(=O)NCC(=O)NCC(=O)O (stereo not drawn) (H-[ξR]-Gly-Gly-OH) was tested, and the T/C [11] was 98 % of control, the T/C [12] was 96 % of control and the T/C [13] was 98 % of control.
Cc1ccc(N=Nc2c(C)nn(C(=S)S)c2C)cc1 was tested, and the T/C (dose: 100.0 mg/kg/injection, schedule: Q04DX002 (ip), vehicle: Klucel (hydroxypropylcellulose) (HPC)) was 100 % of control and the T/C (dose: 200.0 mg/kg/injection, schedule: Q04DX002 (ip), vehicle: Klucel (hydroxypropylcellulose) (HPC)) was 105 % of control.
With C=CCNC(=S)N/N=C/c1nccc(-c2ccccc2)c1C the T/C [15] was 112 % of control and the T/C [4] was 86 % of control.
In the case of O=c1[nH]cnc2n[nH]nc12, the T/C (dose: 12.5 mg/kg/injection, schedule: Q01DX009 (ip), vehicle: saline with Tween-80) is reported as 107 % of control, the T/C [15] is reported as 100 % of control and the T/C [4] is reported as 117 % of control. For the same compound, the T/C [5] was 109 % of control and the T/C [6] was 121 % of control.
For O=C(C[n+]1ccc2ccccc2c1)c1ccc(-c2ccccc2)cc1, the T/C (dose: 12.5 mg/kg/injection, schedule: Q01DX009 (ip), vehicle: Klucel (hydroxypropylcellulose) (HPC)) was 118 % of control, the T/C [10] was 98 % of control and 116 % of control and the T/C [7] was 101 % of control and 115 % of control. The T/C [8] was 101 % of control and 122 % of control.
For CC(Br)CCc1ccccc1Br (centres undefined), the T/C [1] was 101 % of control, the T/C [2] was 93 % of control and the T/C [3] was 97 % of control.
COc1cc2c(cc1OC)C1C(=O)c3ccc4c(c3OC1CO2)CC(C(C)(O)CO)O4 (centres undefined) was tested, and the T/C (dose: 10.0 mg/kg/injection, schedule: Q01DX005 (ip), vehicle: DMSO) was 108 % of control and the T/C (dose: 20.0 mg/kg/injection, schedule: Q01DX005 (ip), vehicle: DMSO) was 107 % of control.
CC1(c2cccs2)NC(=O)NC1=O (centres undefined) was tested, and the T/C [15] was 100 % of control, the T/C [4] was 109 % of control and the T/C [5] was 98 % of control. For the same compound, the T/C [6] was 104 % of control and the T/C (dose: 400.0 mg/kg/injection, schedule: Q01DX009 (ip), vehicle: saline with Tween-80) was 101 % of control.
